Data: patent US20260199284A1, “SPECIFIC VASH COMPOUNDS (SVC) INHIBITORS FOR HEART DISEASES” (MT ACT, priority 2023, published 2026)
“Also recorded” adds a separate entry of the source.

Key:
[1] = system: cardiomyocytes of obese ZSF1 rats; assay: Unloaded shortening contractility of HFpEF myocytes; format: cell-based, rat; conditions: 30-weeks aged obese ZSF1 rats, 2-hours treatment
Protocol: FIG. 16: Improved contraction and relaxation kinetics of HFpEF myocytes during unloaded shortening upon VASH inhibition or TTL overexpression in primary cardiomyocytes isolated from WKY, ZSF1-Lean, or ZSF1 Obese rats. A) Contraction amplitude, B) contraction time, and C) relaxation time in isolated rat cardiomyocytes. n=~90 myocytes per group from N=3 ZSF1 Lean or Obese rats; n=60 myocytes from N=2 WKY rats. Two-way ANOVA with factors of genotype and treatment.
Contractility was measured in a custom-fabricated cell chamber (IonOptix) mounted on an LSM Zeiss 880 inverted confocal microscope using either a 40 or 63× oil 1.4 numerical aperture objective and transmitted light camera (IonOptix MyoCam-S). Experiments were conducted at room temperature and field stimulation was provided at 1.0 Hz with a cell stimulator (MyoPacer, IonOptix). After 10-30 seconds of pacing to achieve steady state, five traces were recorded and analyzed. Sarcomere length was measured optically by Fourier transform analysis (IonWizard, IonOptix).

Carboxypeptidase A (CPA) = target: T1, Carboxypeptidase A (CPA) (Homo sapiens, UniProt P15085); assay: Carboxypeptidase A in vitro assay (western blot); format: biochemical; conditions: selectivity control
T1 sequence (P15085 111-419): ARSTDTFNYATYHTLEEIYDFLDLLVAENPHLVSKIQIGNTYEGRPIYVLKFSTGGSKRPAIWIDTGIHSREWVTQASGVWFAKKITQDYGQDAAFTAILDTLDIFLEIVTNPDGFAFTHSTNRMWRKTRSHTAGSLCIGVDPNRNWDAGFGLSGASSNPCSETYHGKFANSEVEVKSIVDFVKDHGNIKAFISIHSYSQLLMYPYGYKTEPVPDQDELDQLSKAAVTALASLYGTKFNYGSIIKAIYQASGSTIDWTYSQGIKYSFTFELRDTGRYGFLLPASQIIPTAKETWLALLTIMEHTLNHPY
Excerpt: FIG. 6: In vitro detyrosination assays using recombinant human enzymes in absence or presence of SVC_01 or BzISA (specific carboxypeptidase A inhibitor). […] Reactions were stopped using SDS-page laemli buffer and loaded for western blotting using specific antibodies.
Below, the criteria for selection are detailed: • Protease with documented carboxypeptidase activity towards alpha tubulin. Carboxypeptidase A hydrolyzes peptide bonds of C-terminal residues with aromatic or aliphatic side-chains (FIG. 6). • Cysteine protease with preference for non-aromatic residues at P1′. The optimum recognition site for Human rhinovirus (HRV) type 14 3C protease is LEVLFQ/GP, with a glycine at the P1′ position (FIG. 7). • Cysteine protease with preference for aromatic residues at P1′ site. Alike VASH, cathepsin B prefers an aromatic residue at the P1′ position. This is considered to be our best control for specificity (FIG. 8)

[2] = system: human adult cardiomyocytes; assay: mRNA expression of detyrosination-tyrosination cycle genes in human adult cardiomyocytes; format: cell-based; conditions: vs vehicle
Protocol: FIG. 34: human adult cardiomyocytes are treated with vehicle or SVC-01 and collected for analysis of mRNA expression of genes involved in the detyrosination-tyrosination cycle.
(§1) Specificity of SVC-01 was assayed using both human VASH1 and VASH2 recombinant enzymes. […] Finally, to ensure that regulation of other genes involved in the detyrosination-tyrosination cycle is not affected, we analysed gene expression of all relevant and associated genes following treatment with SVC-02 in adult human cardiomyocytes. We found no alteration of VASH1, VASH2, MATCAP, TTL or SVBP gene expression between vehicle control and SVC-02 treated cells (FIG. 34).

[3] = system: tubulin detyrosination in human cells; assay: Immunofluorescent (high content screening) detection of tubulin detyrosination in human cells; format: cell-based
Protocol: FIG. 4: Immuofluorescent staining of wild type human cells and VASH double knock-outs.
FIG. 5: Immunofluorescent method to detect levels of tubulin detyrosination in human cells. Dose dependent reduction of tubulin detyrosination in human cells is observed after 2 hours treatment with all SVCs. In cellulo IC50 measure for SVC_03=10 nM.
FIG. 30: Immunofluorescent method to detect levels of tubulin detyrosination in human cells. Dose dependent reduction of tubulin detyrosination in human cells is observed after 2 hours treatment with all SVCs.
Since to date no small molecule has been designed to inhibit the enzyme VASH that is responsible for tubulin detyrosination, we engineered various compounds based on the natural substrate of the enzyme. We undertook an extensive analysis of the human proteome and sought to identify human proteins that encoded a -EEY sequence at the very C-terminal. Only 3 proteins matched the criteria including alpha-tubulin. Therefore, we developed 5 compounds that all share a tyrosine in the structure that is essential for the specificity (FIG. 2). […] Using computer-aided drug discovery and iterative cycles of medicinal chemistry work-up followed by ELISA (in vitro) and HCS (in cellulo) testing, we gathered a SAR database containing new chemical entities. The potency and selectivity of these compound is considered within pharmaceutical standards for further development. […] Next, using a human cell-line we assayed the activity of the compound SVC_01 in a cellular system that further gives indication on penetration and cellular efficacy. Following 2 hours exposure of the human cells to the SVC_01 compound, we fixed and analysed by specific immunofluorescence the labelling of detyrosinated tubulin but also that of another posttranslational modification termed acetylation (FIG. 4). […] Although specific, SVC_01 was used at micromolar concentration to obtain full inhibition. With the objective to improve cellular IC50 of our SVCs, we designed compounds that have better cell penetration specifications.

recombinant human VASH2 = recombinant human VASH2 (Homo sapiens, UniProt Q86V25); assay: In vitro detyrosination assay with recombinant human VASH2; format: biochemical; conditions: increasing concentration
Chain of recombinant human VASH2 (Q86V25 whole entry): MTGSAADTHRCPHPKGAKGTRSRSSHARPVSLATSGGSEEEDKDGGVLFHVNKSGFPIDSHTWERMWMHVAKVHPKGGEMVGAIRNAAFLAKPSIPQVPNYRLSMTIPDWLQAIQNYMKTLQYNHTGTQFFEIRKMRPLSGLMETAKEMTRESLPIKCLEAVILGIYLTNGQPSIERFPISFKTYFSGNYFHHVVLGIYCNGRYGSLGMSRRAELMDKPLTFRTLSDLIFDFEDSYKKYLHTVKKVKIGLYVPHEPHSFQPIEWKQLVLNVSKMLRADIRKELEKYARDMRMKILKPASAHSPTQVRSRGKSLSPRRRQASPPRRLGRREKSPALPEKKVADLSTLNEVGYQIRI
Protocol: FIG. 32: In vitro detyrosination assays using recombinant human VASH1 and VASH2 enzymes in presence of increasing concentration of SVC_01.
as §1

[4] = target: recombinant human VASH1 (hVASH1) and SVBP complex (Homo sapiens, UniProt Q7L8A9); assay: In vitro detyrosination assay (ELISA-based) with recombinant human VASH1/SVBP; format: biochemical; conditions: for inhibition of detyrosinase activity of recombinant human VASH1: recombinant enzyme, dose-response
Chain of recombinant human VASH1 (hVASH1) and SVBP complex (Q7L8A9 whole entry): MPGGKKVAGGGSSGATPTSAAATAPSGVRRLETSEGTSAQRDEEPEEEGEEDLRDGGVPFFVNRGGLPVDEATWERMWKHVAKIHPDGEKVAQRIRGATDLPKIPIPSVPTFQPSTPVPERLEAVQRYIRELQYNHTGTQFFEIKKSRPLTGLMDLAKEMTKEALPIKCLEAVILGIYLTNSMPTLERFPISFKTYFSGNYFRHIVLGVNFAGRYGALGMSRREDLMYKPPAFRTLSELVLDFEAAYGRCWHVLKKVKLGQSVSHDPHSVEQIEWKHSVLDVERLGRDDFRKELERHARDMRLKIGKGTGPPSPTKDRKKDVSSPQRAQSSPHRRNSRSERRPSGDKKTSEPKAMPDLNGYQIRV
Chain of recombinant human VASH1 (hVASH1) and SVBP complex (Q8N300 whole entry partner): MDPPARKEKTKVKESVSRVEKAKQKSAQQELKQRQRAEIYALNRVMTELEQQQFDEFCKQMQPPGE
Protocol: FIG. 3: In vitro detyrosination assays using recombinant human VASH1 (hVASH1) and SVBP complex. ELISA-based method to measure detyrosinase activity. Dose-response allows for accurate determination of the inhibition of the compounds on the target.
We undertook an extensive analysis of the human proteome and sought to identify human proteins that encoded a -EEY sequence at the very C-terminal. […] Following 2 hours exposure of the human cells to the SVC_01 compound, we fixed and analysed by specific immunofluorescence the labelling of detyrosinated tubulin but also that of another posttranslational modification termed acetylation (FIG. 4).

[5] = 2 hours exposure, immunofluorescence

inhibition of Carboxypeptidase A (Carboxypeptidase A (CPA)) | better inhibition compared to Epo-Y [4] | IC50 on human cells ([3]; human cells) | Structure (SMILES) | contraction and relaxation kinetics [1] | expression of VASH1, VASH2, MATCAP, TTL or SVBP genes [2] | level of acetylated tubulin in human cells [3, 5] | level of tubulin detyrosination in human cells [3, 5] | inhibition of detyrosinating activity of recombinant human VASH2 (recombinant human VASH2) | inhibition of detyrosinase activity of recombinant human VASH1 [4]
No cross reactions observed | about 100 × | – | O=C(O)CCC[C@H](NC(=O)[C@H]1O[C@@H]1C(=O)C[C@@H](Cc1ccc(OCc2ccccc2)cc1)C(=O)O)C(=O)NCCc1ccccc1 [SVC_01] | Both contraction and relaxation kinetics were improved | did not alter expression | remain unaffected; also recorded: without affecting the level of acetylation | background signal comparable to that observed in VASH 2KO cells; also recorded: completely reduced the level of tubulin detyrosination | efficiently inhibited; also recorded: efficient in inhibiting | efficiently inhibited; also recorded: efficient in inhibiting
– | – | low nanomolar | CCOC(=O)[C@H](Cc1ccc(OCC)cc1)NC(=O)[C@H]1O[C@@H]1C(=O)N[C@@H](Cc1ccc(OCC)cc1)C(=O)OCC [SVC_02] | – | no alteration | – | – | – | inactive in its prodrug form; also recorded: inactive toward the therapeutic target
